Reference: ChEMBL document CHEMBL3286207, “Development of a new class of proteasome inhibitors with an epoxyketone warhead: Rational hybridization of non-peptidic belactosin derivatives and peptide epoxyketones” (Bioorg Med Chem, 2014)

Tests used:
[1] = system: HCT-116; experiment: Cytotoxicity against human HCT116 cells assessed as growth inhibition after 72 hrs by CCK-8 assay; assay type: functional, cell-based; settings: HCT-116, 72 h
[2] = target: 26S proteasome; experiment: Inhibition of chymotrypsin-like of human 20S proteasome using chromophoric Suc-LLVY-AMC as substrate after 60 mins by fluorescence assay; assay type: protein-complex assay

| IC50 [2] [nM] | Structure (SMILES) | IC50 [1] [nM] |
| --- | --- | --- |
| – | CC[C@H](C)[C@@H]1C(=O)O[C@H]1C(=O)NCCC(COCc1ccccc1)COCc1ccccc1 | > 10000 |
| 2300 | CC(=O)N[C@@H](CC(=O)NCCC(COCc1ccccc1)COCc1ccccc1)C(=O)N[C@@H](CC(C)C)C(=O)[C@@]1(C)CO1 | 1900 |
| 5700 | CC(=O)N[C@@H](CC(=O)NCCCCOCc1ccccc1)C(=O)N[C@@H](CC(C)C)C(=O)[C@@]1(C)CO1 | 2900 |
